Data taken from patent US11254663B2 (BRISTOL-MYERS SQUIBB COMPANY, priority 2019, dated 2022).

molecular target: FXR (Homo sapiens (Human), UniProt Q96RI1); test: transient human FXR/Gal4-luciferase reporter assay; assay type: cell-based; conditions: not given
Outline: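 HEK293 cells stably carrying a 5×Gal4 response element–firefly luciferase reporter were transiently transfected overnight with a Gal4 DBD–human FXR LBD fusion plasmid. Compound was added in DMSO and cells were incubated overnight at 37 °C, 5% CO2. Activity was read as Steady-Glo luminescence.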

Chain of FXR (Q96RI1 262-486): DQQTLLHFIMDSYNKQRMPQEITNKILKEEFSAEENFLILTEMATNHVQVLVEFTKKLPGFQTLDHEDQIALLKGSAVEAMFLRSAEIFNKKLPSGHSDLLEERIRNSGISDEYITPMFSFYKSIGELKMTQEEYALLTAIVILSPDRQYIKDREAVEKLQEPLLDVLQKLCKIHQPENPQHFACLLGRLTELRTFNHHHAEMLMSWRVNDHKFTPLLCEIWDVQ

SMILES	EC50 [nM]
O=C(N(CC12CCC(c3ccc(C(F)(F)F)cn3)(CC1)CC2)c1cccc(-c2cnc(C3CC3)nc2)c1)C12CC(F)(C1)C2 [Example 490, N-(3-(2-cyclopropylpyrimidin-5-yl)phenyl)-3-fluoro-N-((4-(5-(trifluoromethyl)pyridin-2-yl)bicyclo[2.2.2]octan-1-yl)methyl)bicyclo[1.1.1]pentane-1-carboxamide]	334
CCOc1ccc(-c2ccnc(N(CC34CCC(c5noc(C(C)(C)C)n5)(CC3)CC4)C(=O)C34CC(F)(C3)C4)c2)cc1 [Example 532, N-((4-(5-(tert-butyl)-1,2,4-oxadiazol-3-yl)bicyclo[2.2.2]octan-1-yl)methyl)-N-(4-(4-ethoxyphenyl)pyridin-2-yl)-3-fluorobicyclo[1.1.1]pentane-1-carboxamide]	86
CC(C)(C)c1nc(C23CCC(CN(C(=O)C45CC(F)(C4)C5)c4cncc(-c5ccc(OC(F)F)cc5)c4)(CC2)CC3)no1 [Example 483, N-((4-(5-(tert-butyl)-1,2,4-oxadiazol-3-yl)bicyclo[2.2.2]octan-1-yl)methyl)-N-(5-(4-(difluoromethoxy)phenyl)pyridin-3-yl)-3-fluorobicyclo[1.1.1]pentane-1-carboxamide]	255
CC(F)(F)c1nc(C23CCC(CN(C(=O)C45CC(F)(C4)C5)c4cccc(-c5ccc(OC(F)F)cc5)c4)(CC2)CC3)no1 [Example 528, N-((4-(5-(1,1-difluoroethyl)-1,2,4-oxadiazol-3-yl)bicyclo[2.2.2]octan-1-yl)methyl)-N-(4′-(difluoromethoxy)-[1,1′-biphenyl]-3-yl)-3-fluorobicyclo[1.1.1]pentane-1-carboxamide]	73

same assay, conditions: Gal4-hFXR fusion construct, HEK293 reporter cells; response relative to 8 μM GW-4064

SMILES	EC50 [nM]
CCOc1ccc(-c2cccc(N(CC34CCC(c5cnc(C(F)(F)F)nc5)(CC3)OC4)C(=O)C34CC(F)(C3)C4)c2)cc1 [Example 422, N-(4′-ethoxy-[1,1′-biphenyl]-3-yl)-3-fluoro-N-((1-(2-(trifluoromethyl)pyrimidin-5-yl)-2-oxabicyclo[2.2.2]octan-4-yl)methyl)bicyclo[1.1.1]pentane-1-carboxamide]	1520
CC(C)(C)c1noc(C23CCC(CN(C(=O)C45CC(F)(C4)C5)c4cccc(-c5ccc(NS(C)(=O)=O)nc5)c4)(CC2)CC3)n1 [Example 364, N-((4-(3-(tert-butyl)-1,2,4-oxadiazol-5-yl)bicyclo[2.2.2]octan-1-yl)methyl)-3-fluoro-N-(3-(6-(methylsulfonamido)pyridin-3-yl)phenyl)bicyclo[1.1.1]pentane-1-carboxamide]	509
CC(C)c1noc(C23CCC(CN(C(=O)C45CC(F)(C4)C5)c4cccc(-c5cnc(C6CC6)nc5)c4)(CC2)CC3)n1 [Example 385, N-(3-(2-cyclopropylpyrimidin-5-yl)phenyl)-3-fluoro-N-((4-(3-isopropyl-1,2,4-oxadiazol-5-yl)bicyclo[2.2.2]octan-1-yl)methyl)bicyclo[1.1.1]pentane-1-carboxamide]	35
NS(=O)(=O)c1cccc(-c2cccc(N(CC34CCC(c5nc(C6CC6)no5)(CC3)CC4)C(=O)C34CC(F)(C3)C4)c2)c1 [Example 257, N-((4-(3-cyclopropyl-1,2,4-oxadiazol-5-yl)bicyclo[2.2.2]octan-1-yl)methyl)-3-fluoro-N-(3′-sulfamoyl-[1,1′-biphenyl]-3-yl)bicyclo[1.1.1]pentane-1-carboxamide]	521
Cc1nc2c(C(F)(F)F)cc(-c3cccc(N(CC45CCC(c6nc(C7CC7)no6)(CC4)CC5)C(=O)C45CC(F)(C4)C5)c3)cn2n1 [Example 321, N-((4-(3-cyclopropyl-1,2,4-oxadiazol-5-yl)bicyclo[2.2.2]octan-1-yl)methyl)-3-fluoro-N-(3-(2-methyl-8-(trifluoromethyl)-[1,2,4]triazolo[1,5-a]pyridin-6-yl)phenyl) bicyclo[1.1.1]pentane-1-carboxamide]	1460
COc1cc(-c2cccc(N(CC34CCC(c5nnc(C)o5)(CC3)CC4)C(=O)C34CC(F)(C3)C4)c2)ccn1 [Example 230, 3-Fluoro-N-(3-(2-methoxypyridin-4-yl)phenyl)-N-((4-(5-methyl-1,3,4-oxadiazol-2-yl)bicyclo[2.2.2]octan-1-yl)methyl)bicyclo[1.1.1]pentane-1-carboxamide]	988
CCOc1ccc(-c2cccc(N(CC34CCC(c5nc(C6CC6)no5)(CC3)CC4)C(=O)C34CC(F)(C3)C4)c2)cn1 [Example 281, N-((4-(3-cyclopropyl-1,2,4-oxadiazol-5-yl)bicyclo[2.2.2]octan-1-yl)methyl)-N-(3-(6-ethoxypyridin-3-yl)phenyl)-3-fluorobicyclo[1.1.1]pentane-1-carboxamide]	66
O=C(N(CC12CCC(c3nc(C4CC4)no3)(CC1)CC2)c1cccc(-c2ccn3ncnc3c2)c1)C12CC(F)(C1)C2 [Example 298, N-(3-([1,2,4]triazolo[1,5-a]pyridin-7-yl)phenyl)-N-((4-(3-cyclopropyl-1,2,4-oxadiazol-5-yl)bicyclo[2.2.2]octan-1-yl)methyl)-3-fluorobicyclo[1.1.1]pentane-1-carboxamide]	1680
Cc1nc2ccc(-c3cccc(N(CC45CCC(c6nnc(C7CC7)o6)(CC4)CC5)C(=O)C45CC(F)(C4)C5)c3)cc2s1 [Example 561, N-((4-(5-cyclopropyl-1,3,4-oxadiazol-2-yl)bicyclo[2.2.2]octan-1-yl)methyl)-3-fluoro-N-(3-(2-methylbenzo[d]thiazol-6-yl)phenyl)bicyclo[1.1.1]pentane-1-carboxamide]	58
COc1cc(-c2cccc(N(CC34CCC(c5nnc(C)s5)(CC3)CC4)C(=O)C3CC(F)(F)C3)c2)ccn1 [Example 234, 3,3-difluoro-N-(3-(2-methoxypyridin-4-yl)phenyl)-N-((4-(5-methyl-1,3,4-thiadiazol-2-yl)bicyclo[2.2.2]octan-1-yl)methyl)cyclobutane-1-carboxamide]	1760
CC(C)(O)c1ccc(-c2ccnc(N(CC34CCC(c5ccc(C(C)(F)F)cn5)(CC3)CC4)C(=O)OC(C)(C)C(F)(F)F)c2)nc1 [Example 607, 1,1,1-trifluoro-2-methylpropan-2-yl ((4-(5-(1,1-difluoroethyl)pyridin-2-yl)bicyclo[2.2.2]octan-1-yl)methyl)(5-(2-hydroxypropan-2-yl)-[2,4′-bipyridin]-2′-yl)carbamate]	96
CC(C)(C)c1nc(C23CCC(CN(C(=O)C45CC(F)(C4)C5)c4cccc(-c5ccc(OC(F)F)cc5)c4)(CC2)CC3)no1 [Example 444, N-((4-(5-(tert-butyl)-1,2,4-oxadiazol-3-yl)bicyclo[2.2.2]octan-1-yl)methyl)-N-(4′-(difluoromethoxy)-[1,1′-biphenyl]-3-yl)-3-fluorobicyclo[1.1.1]pentane-1-carboxamide]	61
CC(C)(O)c1ccc(-c2cccc(N(CC34CCC(c5noc(C(C)(C)F)n5)(CC3)CC4)C(=O)NC3CCC(O)(C(F)(F)F)CC3)c2)cc1 (single isomer, unassigned) [Example 601, 1-((4-(5-(2-fluoropropan-2-yl)-1,2,4-oxadiazol-3-yl)bicyclo[2.2.2]octan-1-yl)methyl)-3-(4-hydroxy-4-(trifluoromethyl)cyclohexyl)-1-(4′-(2-hydroxypropan-2-yl)-[1,1′-biphenyl]-3-yl) urea]	246
Cc1nc2ccc(-c3cccc(N(CC45CCC(c6noc(C(C)C)n6)(CC4)CC5)C(=O)C45CC(F)(C4)C5)c3)cc2s1 [Example 433, 3-fluoro-N-((4-(5-isopropyl-1,2,4-oxadiazol-3-yl)bicyclo[2.2.2]octan-1-yl)methyl)-N-(3-(2-methylbenzo[d]thiazol-6-yl)phenyl)bicyclo[1.1.1]pentane-1-carboxamide]	37
CC(C)(C)c1nc(C23CCC(CN(C(=O)C45CC(F)(C4)C5)c4cccc(-c5cnc(C6CC6)nc5)c4)(CC2)CC3)no1 [Example 442, N-((4-(5-(tert-butyl)-1,2,4-oxadiazol-3-yl)bicyclo[2.2.2]octan-1-yl)methyl)-N-(3-(2-cyclopropylpyrimidin-5-yl)phenyl)-3-fluorobicyclo[1.1.1]pentane-1-carboxamide]	71
Cc1nc2ccc(-c3cccc(N(CC45CCC(c6ccc(C7(C#N)CC7)cc6)(CC4)OC5)C(=O)C45CC(F)(C4)C5)c3)cc2s1 [Example 346, N-((1-(4-(1-cyanocyclopropyl)phenyl)-2-oxabicyclo[2.2.2]octan-4-yl)methyl)-3-fluoro-N-(3-(2-methylbenzo[d]thiazol-6-yl)phenyl)bicyclo[1.1.1]pentane-1-carboxamide]	181
Cc1nc2ccc(-c3cccc(N(CC45CCC(c6cnc(C(F)(F)F)nc6)(CC4)OC5)C(=O)C45CC(F)(C4)C5)c3)cc2s1 [Example 421, 3-fluoro-N-(3-(2-methylbenzo[d]thiazol-6-yl)phenyl)-N-((1-(2-(trifluoromethyl)pyrimidin-5-yl)-2-oxabicyclo[2.2.2]octan-4-yl)methyl)bicyclo[1.1.1]pentane-1-carboxamide]	2170
CC(C)(C)c1nc(C23CCC(CN(C(=O)C45CC(F)(C4)C5)c4cccc(-c5ccc(C(F)(F)F)cc5)c4)(CC2)CC3)no1 [Example 445, N-((4-(5-(tert-butyl)-1,2,4-oxadiazol-3-yl)bicyclo[2.2.2]octan-1-yl)methyl)-3-fluoro-N-(4′-(trifluoromethyl)-[1,1′-biphenyl]-3-yl)bicyclo[1.1.1]pentane-1-carboxamide]	719
CC(C)c1nc(C23CCC(CN(C(=O)C45CC(F)(C4)C5)c4cccc(-c5cnc(C6CC6)nc5)c4)(CC2)CC3)no1 [Example 434, N-(3-(2-cyclopropylpyrimidin-5-yl)phenyl)-3-fluoro-N-((4-(5-isopropyl-1,2,4-oxadiazol-3-yl)bicyclo[2.2.2]octan-1-yl)methyl)bicyclo[1.1.1]pentane-1-carboxamide]	57
CCOc1cnc(-c2cccc(N(CC34CCC(c5nc(C(C)(C)C)no5)(CC3)CC4)C(=O)C34CC(F)(C3)C4)c2)nc1 [Example 370, N-((4-(3-(tert-butyl)-1,2,4-oxadiazol-5-yl)bicyclo[2.2.2]octan-1-yl)methyl)-N-(3-(5-ethoxypyrimidin-2-yl)phenyl)-3-fluorobicyclo[1.1.1]pentane-1-carboxamide]	121
